# Reference: US20040234463A1, “Antimicrobial solution for both tropical and oral use” (Innovative Healthcare Products, Inc., priority 2002, published 2004)
# Tests used:
# Experiment in all cases: Titration of zones of inhibition of growth
# Type in all cases: cell-based
# Set-up in all cases: key: NI: No inhibition detected
# Candida albicans = test system: Candida albicans
# Description: (§1) The present invention was tested against a commercially available denture cleanser and a 3% solution of H2O2 to test its effectiveness to inhibit growth of ten various target microorganisms commonly found in the human mouth. Included among the microorganisms were candida albicans, staphylococcus aureus, streptococcus sanguia, and fusobacterium nucleatum. Three samples of each microorganism were prepared for introduction of one of the various treatments—either, the present invention, a commercially-available denture cleanser, or a 3% solution of H2O2. The table blow partailly summarizes the results in terms of the titration of zones (in millimeters) of inhibition of growth.
# Fusobacterium nucleatum = test system: Fusobacterium nucleatum
# Description: as §1
# Staphylococcus aureus = test system: Staphylococcus aureus
# Description: as §1
# Streptococcus sanguia = test system: Streptococcus sanguia
# Description: as §1
smiles,measurement,setting,value
OO [H2O2],zone of inhibition of growth,Candida albicans; dilution 1/16,NI
same,zone of inhibition of growth,Candida albicans; dilution 1/32,NI
same,zone of inhibition of growth,Candida albicans; dilution 1/64,NI
same,zone of inhibition of growth,Candida albicans; dilution 1/128,NI
same,zone of inhibition of growth,Candida albicans; dilution St.,5.5 millimeters
same,zone of inhibition of growth,Candida albicans; dilution ¼,NI
same,zone of inhibition of growth,Candida albicans; dilution ½,5.0 millimeters
same,zone of inhibition of growth,Candida albicans; dilution ⅛,NI
same,zone of inhibition of growth,Fusobacterium nucleatum; dilution 1/16,NI
same,zone of inhibition of growth,Fusobacterium nucleatum; dilution 1/32,NI
same,zone of inhibition of growth,Fusobacterium nucleatum; dilution 1/64,NI
same,zone of inhibition of growth,Fusobacterium nucleatum; dilution 1/128,NI
same,zone of inhibition of growth,Fusobacterium nucleatum; dilution St.,17.0 millimeters
same,zone of inhibition of growth,Fusobacterium nucleatum; dilution ¼,7.0 millimeters
same,zone of inhibition of growth,Fusobacterium nucleatum; dilution ½,13.0 millimeters
same,zone of inhibition of growth,Fusobacterium nucleatum; dilution ⅛,6.0 millimeters
same,zone of inhibition of growth,Staphylococcus aureus; dilution 1/16,NI
same,zone of inhibition of growth,Staphylococcus aureus; dilution 1/32,NI
same,zone of inhibition of growth,Staphylococcus aureus; dilution 1/64,NI
same,zone of inhibition of growth,Staphylococcus aureus; dilution 1/128,NI
same,zone of inhibition of growth,Staphylococcus aureus; dilution St.,10.0 millimeters
same,zone of inhibition of growth,Staphylococcus aureus; dilution ¼,NI
same,zone of inhibition of growth,Staphylococcus aureus; dilution ½,5.0 millimeters
same,zone of inhibition of growth,Staphylococcus aureus; dilution ⅛,NI
same,zone of inhibition of growth,Streptococcus sanguia; dilution 1/16,NI
same,zone of inhibition of growth,Streptococcus sanguia; dilution 1/32,NI
same,zone of inhibition of growth,Streptococcus sanguia; dilution 1/64,NI
same,zone of inhibition of growth,Streptococcus sanguia; dilution 1/128,NI
same,zone of inhibition of growth,Streptococcus sanguia; dilution St.,10.0 millimeters
same,zone of inhibition of growth,Streptococcus sanguia; dilution ¼,NI
same,zone of inhibition of growth,Streptococcus sanguia; dilution ½,6.5 millimeters
same,zone of inhibition of growth,Streptococcus sanguia; dilution ⅛,NI
